{"source": "patent US20140287036A1", "about": "“SOFT-GELATIN CAPSULE FORMULATION” (SUCAMPO AG, priority 2006, published 2014)", "format_in_all_cases": "physicochemical", "key": {"[1]": {"test": "Storage stability of compound 1 solution (240 μg/g) in a vehicle at 55° C., HPLC assay", "settings": "percentage of theoretical amount (240 μg/g); for concentration of compound 1, day 10: 55° C., 10 days", "method": "Compound 1 was dissolved in a vehicle shown in table 1 below to give 240 μg/g solution (sample). The precise concentration of compound 1 in the sample was determined by means of HPLC (day 0). Then, the sample was put in a hard grass container and kept at 55° C. for 10 days, and then the precise concentration of the compound 1 in the sample was determined by means of HPLC (day 10).\nThe determination of the concentration of the compound in the sample was carried out as follows. About 0.2 g of the sample was mixed with exactly 2 ml of internal standard solution and then with a dissolving agent shown in Table 1 to give 5 mL of sample solution. About 12 mg of the reference standard compound 1 was weighted precisely and added with acetonitrile to give exactly 100 ml solution. Exactly 0.8 ml of the solution was obtained and added with exactly 4 ml of the internal standard solution, and then added with the dissolving agent to give 10 ml of standard solution.\nThe fluorescent labeling agent was added to the respective solution, stirred and stood at room temperature. Then, respective solution in an amount that theoretically gives 3.6 ng of compound 1 was loaded on the column and analyzed under the condition as follows:\nColumn: 5 mm×25 cm stainless steel column packed with octadecylsilane treated silica gel for HPLC (5 μm)\nMobile phase: mixture of acetonitrile HPLC grade: methanol HPLC grade: ammonium acetate (0.05 mol/L)\nDetector: spectrophotofluorometer"}, "[2]": {"test": "Stability of compound 1/MCT solution (60 μg/g) kept with gelatin piece at 40° C. for 21 days", "settings": "MCT solution, percentage of theoretical amount (60 μg/g)", "method": "One hundred (100) parts by weight of gelatin (type A, high bloom, SKW Biosystems #195F) and 35 parts by weight of a plasticizer shown in Table 2 were mixed in water and dried to give gelatin piece. Compound 1 was dissolved in medium chain fatty acid triglyceride (USP/NF grade) to give a liquid mixture comprising 60 μg/g of the compound. 0.5 g of the liquid mixture and 0.5 g of each gelatin piece were put together in a sealed container and kept at 40° C. for 21 days. Then, the concentration of compound 1 contained in the liquid mixture was determined in the same manner as Reference Example 1."}, "[3]": {"test": "Stability of soft gelatin capsule of compound 1 at 40° C.", "settings": "MCT fill 240 μg/g; for conc. (% of Initial) 40° C. 2 mo: 2 months; for conc. (% of Initial) 40° C. 3 mo: 3 months", "method": "Sugar alcohol solution derived from corn starch in an amount shown in Table 3 was added in an appropriate amount of water, stirred and heated. Then, gelatin 100 parts by weight was added thereto to give gelatin solution. Compound 1 was dissolved in medium chain fatty acid triglyceride (USP/NF grade) to give a fill solution containing 240 μg/g of compound 1. The gelatin solution and the liquid mixture were loaded on capsule forming and filling machine to give capsule containing the fill solution therein, and the capsule was dried to give soft gelatin capsule.\nThe capsule was put in a sealed container and kept at 40° C. for 3 months. The concentration of compound 1 in the fill solution contained in the capsule was determined after 1, 2 and 3 months storage in the same manner as Reference Example 1."}, "[4]": {"settings": "vehicle polyethylene glycol 400"}, "[5]": {"settings": "capsule shell gelatin 100 / sugar alcohol solution 35 parts by weight"}, "[6]": {"settings": "capsule shell gelatin 100 / sugar alcohol solution 45 parts by weight"}, "[7]": {"settings": "capsule shell gelatin 100 / sugar alcohol solution 55 parts by weight"}}, "data": [{"compound": "CCCCC(F)(F)[C@@]1(O)CC[C@H]2[C@@H](CC(=O)[C@@H]2CCCCCCC(=O)O)O1", "note": "[compound 1, 7-[(2R,4aR,5R,7aR)-2-(1,1-difluoropentyl)-2-hydroxy-6-oxooctahydrocyclopenta[b]pyran-5-yl]heptanoic acid]", "values": [{"measurement": "concentration of compound 1, day 10", "setting": "[1]; vehicle glycerin", "result": 78.0, "unit": "%"}, {"measurement": "concentration of compound 1, day 0", "setting": "[1]; vehicle glycerin", "result": 92.0, "unit": "%"}, {"measurement": "concentration of compound 1, day 10", "setting": "[1]; vehicle hydrogenated maltose starch syrup", "result": 24.4, "unit": "%"}, {"measurement": "concentration of compound 1, day 10", "setting": "[1]; [4]", "result": 90.1, "unit": "%"}, {"measurement": "concentration of compound 1, day 0", "setting": "[1]; [4]", "result": 98.2, "unit": "%"}, {"measurement": "concentration of compound 1, day 10", "setting": "[1]; vehicle propylene glycol", "result": 88.6, "unit": "%"}, {"measurement": "concentration of compound 1, day 0", "setting": "[1]; vehicle propylene glycol", "result": 97.8, "unit": "%"}, {"measurement": "concentration of compound 1, day 10", "setting": "[1]; vehicle sugar alcohol solution derived from corn starch (Polysorb 85/70/00)", "result": 26.2, "unit": "%"}, {"measurement": "concentration of compound 1 after storage", "setting": "[2]; gelatin piece with glycerin plasticizer (water content 23%)", "result": 86.8, "unit": "%"}, {"measurement": "concentration of compound 1 after storage", "setting": "[2]; gelatin piece with sugar alcohol solution derived from corn starch as plasticizer (water content 25%)", "result": 92.0, "unit": "%"}, {"measurement": "conc. (% of Initial) 40° C. 1 mo", "setting": "[3]; capsule shell gelatin 100 / sugar alcohol solution 35 parts by weight, 1 month", "result": 99.9, "unit": "%"}, {"measurement": "conc. (% of Initial) 40° C. 2 mo", "setting": "[3]; [5]", "result": 100.3, "unit": "%"}, {"measurement": "conc. (% of Initial) 40° C. 3 mo", "setting": "[3]; [5]", "result": 99.2, "unit": "%"}, {"measurement": "conc. (% of Initial) 40° C. 2 mo", "setting": "[3]; [6]", "result": 100.5, "unit": "%"}, {"measurement": "conc. (% of Initial) 40° C. 3 mo", "setting": "[3]; [6]", "result": 100.0, "unit": "%"}, {"measurement": "conc. (% of Initial) 40° C. 2 mo", "setting": "[3]; [7]", "result": 99.3, "unit": "%"}, {"measurement": "conc. (% of Initial) 40° C. 3 mo", "setting": "[3]; [7]", "result": 100.0, "unit": "%"}]}]}
